Laboratory results taken from patent publication US6846840B2, “Cytotoxic N-unsubstituted indoles and cyclopent(B)indoles and method of making and using same” (Arizona Board of Regents acting for and on behalf of …, priority 1999, dated 2005).
Like-named read-outs stand apart in the source and are kept apart here.

Legend:
[1] = tested on: OVARIAN cancer cell lines; details: log of concentration causing 50% lethality; arithmetic average of six to eight ovarian cell lines
Method: (§1) For each histologic cancer type, the average −log LC50 value was determined from an NCI panel consisting of six to eight human cancer cell lines. {Paull, D. K.; Shoemaker, R. H.; Hodes, L.; Monks, A.; Scudiero, D. A.; Rubinstein, L.; Plowman, J.; Boyd, M. R. Display and Analysis of Differential Activity of Drugs Against Human Tumor Cell Lines: Development of Mean Graph and COMPARE Algorithm.

[2] = tested on: LEUKEMIA cancer cell lines; details: log of concentration causing 50% lethality; arithmetic average of six to eight leukemia cell lines
[3] = tested on: MELANOMA cancer cell lines; details: log of concentration causing 50% lethality; arithmetic average of six to eight melanoma cell lines
[4] = tested on: PROSTATE cancer cell lines; details: log of concentration causing 50% lethality; arithmetic average of six to eight prostate cell lines
Method: as §1

[5] = tested on: NSC LUNG cancer cell lines; details: log of concentration causing 50% lethality; arithmetic average of six to eight NSC lung cell lines
RENAL cancer cell lines = details: log of concentration causing 50% lethality; arithmetic average of six to eight renal cell lines
Method: as §1

CNS cancer cell lines = details: log of concentration causing 50% lethality; arithmetic average of six to eight CNS cell lines
BREAST cancer cell lines = details: log of concentration causing 50% lethality; arithmetic average of six to eight breast cell lines
Method: as §1

COLON cancer cell lines = details: log of concentration causing 50% lethality; arithmetic average of six to eight colon cell lines
B-16 melanoma = details: for area under the tumor-growth curve (AUC): control 11.39; for in vivo activity (effect on tumor mass), in words: B16 syngraft, dosing on days 1, 5, and 9 after implantation of 10^5 cells
Method: This compound was studied at three dose levels: 2, 3 and 5 mg/Kg IP on days 1, 5, and 9 after tumor implantation into the front flank muscle. Shown in the plot are the AUC values as a function of time for each dosage. The control was obtained with drug-free animals.

600 bp calf thymus DNA = assay: Alkylation of DNA by reduced indoloquinones; details: FIG. 2
rat liver DT-diaphorase = biological target: T1, rat liver DT-diaphorase (Rattus norvegicus, UniProt P05982); details: FIG. 2
T1 sequence (P05982 2-274 limits assumed): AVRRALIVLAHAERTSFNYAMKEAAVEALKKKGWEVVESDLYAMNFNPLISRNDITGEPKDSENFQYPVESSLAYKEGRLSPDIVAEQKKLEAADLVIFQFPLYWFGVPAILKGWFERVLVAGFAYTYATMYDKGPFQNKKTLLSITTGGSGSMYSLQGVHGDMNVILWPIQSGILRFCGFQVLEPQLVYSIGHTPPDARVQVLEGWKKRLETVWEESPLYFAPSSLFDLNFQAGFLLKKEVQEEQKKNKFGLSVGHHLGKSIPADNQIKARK

[6] = 1 mg/Kg IP on days 1, 5, and 9 after tumor implantation
[7] = 3 mg/Kg IP on days 1, 5, and 9 after tumor implantation

Row | SMILES | Log LC50 [1] | Log LC50 [2] | Log LC50 [3] | Log LC50 [4] | Log LC50 [5] | Log LC50 (RENAL cancer cell lines) | Log LC50 (CNS cancer cell lines) | Log LC50 (BREAST cancer cell lines) | Log LC50 (COLON cancer cell lines) | area under the tumor-growth curve (AUC) (B-16 melanoma; [6]) | area under the tumor-growth curve (AUC) (B-16 melanoma; [7]) | in vivo activity (effect on tumor mass), in words (B-16 melanoma) | % reductive alkylation of DNA, in words (600 bp calf thymus DNA) | DT-diaphorase substrate activity, in words (rat liver DT-diaphorase)
1 | CC1=C(N2CC2)C(=O)c2[nH]c3c(c2C1=O)CCC3O (centres unmarked) [Cyclopent[b]indole 3b, 6-Aziridinyl-1,4-Dihydro-3-hydroxy-7-methyl-(2H) cyclopent[b]indole-5,8-dione] | −4.05 moles/liter | −4.06 moles/liter | −4.85 moles/liter | −4.5 moles/liter | −4.22 moles/liter | −4.73 moles/liter | −4.54 moles/liter | −4.47 moles/liter | −4.45 moles/liter |  |  |  |  | 
2 | CC(=O)OC1CCc2c1[nH]c1c2C(=O)C(C)=C(N2CC2)C1=O (centres unmarked) [Cyclopent[b]indole 3c, 3-Acetoxy-6-aziridinyl-1,4-dihydro-7-methyl-(2H) cyclopent [b]indole-5,8-dione] | −4.366 moles/liter | −4.3 moles/liter | −4.99 moles/liter | −4.63 moles/liter | −4.65 moles/liter | −4.72 moles/liter | −4.7 moles/liter | −4.53 moles/liter | −4.85 moles/liter | 6.67 | 6.92 | reduce the tumor mass substantially | highest % alkylation of DNA | 
3 | COC1CCc2c1[nH]c1c2C(=O)C(C)=C(N2CC2)C1=O (centres unmarked) [Cyclopent[b]indole 3d, 6-Aziridinyl-1,4-dihydro-3-methoxy-7-methyl-(2H) cyclopent[b]indole-5,8-dione] | >−4 moles/liter | −4.06 moles/liter | −4.92 moles/liter | −4.46 moles/liter | −4.2 moles/liter | −4.58 moles/liter | −4.17 moles/liter | −4.33 moles/liter | −4.318 moles/liter |  |  |  |  | 
4 | CC1=C(N2CC2)C(=O)c2[nH]c3c(c2C1=O)CCC3=O [Cyclopent[b]indole 3e, 6-Aziridinyl-1,4-dihydro-7-methyl-(2H) cyclopent [b]indole-3,5,8-trione] | −4.86 moles/liter | >−4 moles/liter | −5.99 moles/liter | −4.8 moles/liter | −5.37 moles/liter | −5.34 moles/liter | −5.13 moles/liter | −4.9 moles/liter | −5.44 moles/liter |  |  | completely inactive |  | 
5 | CC(=O)OC1CCc2c3c(n(C(C)=O)c21)C(=O)C(N1CC1)=C(C)C3=O (centres unmarked) [Cyclopent[b]indole 14, 3-Acetoxy-4-acetyl-6-aziridinyl-1,4-Dihydro-7-methyl-(2H) cyclopent[b]indole-5,8-dione] | −4.18 moles/liter | >−4 moles/liter | −5.06 moles/liter | −4.71 moles/liter | −4.42 moles/liter | −4.78 moles/liter | −4.75 moles/liter | −4.5 moles/liter | −4.77 moles/liter |  |  | enhances antitumor activity greatly | readily alkylates DNA | excellent substrate for DT-diaphorase
6 | CC1=C(N2CC2)C(=O)c2c([nH]c(C)c2C)C1=O [Indole 1a, 5-Aziridinyl-2,3,6-trimethylindole-4,7-dione] | >−4 moles/liter | >−4 moles/liter | −4.42 moles/liter | >−4 moles/liter | −4.29 moles/liter | >−4 moles/liter | >−4 moles/liter | >−4 moles/liter | >−4 moles/liter |  |  |  |  | 
7 | CC1=C(N2CC2)C(=O)c2c([nH]c(CO)c2C)C1=O [Indole 1b, 5-Aziridinyl-2-(hydroxymethyl)-3,6-dimethylindole-4,7-dione] | >−4 moles/liter | >−4 moles/liter | −5.39 moles/liter | −4.78 moles/liter | −4.37 moles/liter | −4.53 moles/liter | >−4 moles/liter | −4.56 moles/liter | −4.32 moles/liter |  |  |  |  | 
8 | CC(=O)OCc1[nH]c2c(c1C)C(=O)C(N1CC1)=C(C)C2=O [Indole 1c, 2-(Acetoxymethyl)-5-aziridinyl-3,6-dimethylindole-4,7-dione] | −4.46 moles/liter | >−4 moles/liter | −5.64 moles/liter | −5.01 moles/liter | −4.48 moles/liter | −4.54 moles/liter | −4.83 moles/liter | −4.57 moles/liter | −5.08 moles/liter | 10.94 | 15.82 | decreased tumor mass only at the 3 mg/kg dose |  | 
9 | CC1=C(N2CC2)C(=O)c2[nH]c(CO)c(C)c2C1=O [Indole 2b, 6-Aziridinyl-2-(hydroxymethyl)-3,5-dimethylindole-4,7-dione] | >−4 moles/liter | >−4 moles/liter | −4.4 moles/liter | −4.2 moles/liter | −4.1 moles/liter | −4.23 moles/liter | −4.05 moles/liter | −4.05 moles/liter | −4.2 moles/liter |  |  |  |  | 
10 | CC(=O)OCc1[nH]c2c(c1C)C(=O)C(C)=C(N1CC1)C2=O [Indole 2c, 2-(Acetoxymethyl)-6-aziridinyl-3,5-dimethylindole-4,7-dione] | >−4 moles/liter | >−4 moles/liter | −4.15 moles/liter | >−4 moles/liter | −4.1 moles/liter | −4.14 moles/liter | >−4 moles/liter | >−4 moles/liter | >−4 moles/liter | 13.83 | 8.59 | inactive at both concentrations |  | 
